Source: PMC6425991, “Peptide Super-Agonist Enhances T-Cell Responses to Melanoma” (Frontiers in Immunology, 2019)
Where “and” joins values, the source holds several entries; their conditions need not be identical. Equal values may be shown once.

Experiments:
HLA A2 = biological target: T1, HLA A2 (Homo sapiens, UniProt P04439, D140Y/D185E/D98H/E176V/E277Q/G131W/G231S/I119V/I121R/I166T/I218V/L300P/L318F/N151K/N90K/P208A/P217A/Q86G/Q94H/R138H/R169H/T345S); assay type: binding
T1 construct: T2 cells (TAP deficient HLA A2^+) were incubated overnight in serum-free media; endogenous in cells; host or cells: T2 cells

[1] = system: CD8 T-cells of healthy donors; conditions: cited from earlier work
Source text: Analysis of T-cells that responded to autologous tumour within the TIL infusion product used to cure an HLA A2^+ stage IV melanoma patient (code MM909.24), and also in the blood 6 months post cure, identified several persistent TCR clonotypes ([16], [17]). […] […]. Alteration of TCR contact residues has the advantage that the resultant APL are highly likely to be viewed as “nonself” and may therefore have increased potential for breaking immune tolerance. […]. PS-CPL have been explored as a way of selecting such “mimitopes” ([19], [33], [50]). This approach ...

MM909.24 TIL = assay: Intracellular cytokine staining (IFNγ) of TIL infusion product; assay type: cell-based, human; conditions: T2 cells as antigen presenting cells, 5 h, peptide 10^−5-10^−12 M
Description: Cells were then washed and stained with violet Live/Dead fixable dead cell stain, VIVID (Life Technologies, Paisley, UK) and for surface markers with anti-CD3 peridinin chlorophyll protein (PerCP) (clone BW264/56, Miltenyi Biotech, Bergisch Gladbach, Germany) and anti-CD8 allophycocyanin (APC)-Vio770 (clone BW135/80, Miltenyi Biotech) antibodies. Cells were prepared for ICS by incubating with Cytofix/Cytoperm™ (BD Biosciences), according to manufacturer's instructions, before staining for 20 min on ice with anti-IFNγ APC antibody (clone 45-15, Miltenyi Biotech). Cells were resuspended in FACS buffer (PBS supplemented with 2% FBS) before acquisition on BD FACS Canto II (BD Biosciences). Data was analysed using FlowJo Software (TreeStar, Ashland, OR, USA).

CD8 T-cell clone ST8.24 = assay: Peptide activation assay, MIP-1β ELISA; assay type: cell-based, human; conditions: overnight, T2 cells, peptide titration
Description: T-cell clones were cultured in R5 for 24 h prior to assay to reduce spontaneous activation. Assays were performed overnight in R5 in 96 U well plates with 3 × 10^5 T-cells and 6 × 10^5 T2 cells with and without desired peptides. The following day, supernatants were harvested, diluted with 70 μL R0 (R10 but without serum) and a half-area-well MIP-1β Enzyme-linked Immunosorbent Assay (ELISA) was carried out as per the manufacturer's instructions (R&D Systems, Minneapolis, MN). A decamer combinatorial peptide library (Pepscan Presto BV, Lelystad, The Netherlands) was stored and used as previously described ([19]). Individual peptides were synthesised to ≥95% purity (GL Biochem, Shanghai, China, or Peptide Protein Research Ltd, Hampshire, UK) stored at −80°C. […] Polyclonal T-cell populations were cultured overnight in R5 in order to reduce spontaneous activation. The following day an IFNγ Enzyme-Linked ImmunoSpot (ELISpot) assay was performed, using Multiscreen plates® (Millipore, Massachusetts, MA) as per the manufacturers' instructions (Mabtech, Nacka Strand, Sweden). 5 × 10^4 T-cells were screened against 10 candidate super-agonist peptides (described previously) at a concentration range of 10^−4 to 10^−8 mM. ELISpot data was collected using an ImmunoSpot® plate reader (CTL, Shaker Heights, Ohio, OH).

| Sequence | MFI of HLA A2 expression (HLA A2) | healthy donors in which the peptide induced greater CD8 T-cell responses [1] | IFNγ production by TIL infusion product (MM909.24 TIL) | activation of clone ST8.24 (MIP-1β ELISA) (CD8 T-cell clone ST8.24) |
| --- | --- | --- | --- | --- |
| DRASFIKNL | 197 and 191 and 182 and 211 and 183 and 188 |  |  |  |
| HPVGEADYFEY | 183 and 202 and 199 and 159 and 231 |  |  |  |
| FATGIGIITV [super-agonist peptide of clone MEL5 from the authors' previous work] |  | 6 of 10 | failed to induce IFNγ production | failed to activate |
